What all share (format): biochemical
Experiment [1] has as its target T1, 1-deoxy-D-xylulose-5-phosphate synthase (paDXPS) (Pseudomonas aeruginosa, UniProt B7V7R4, DEL206-245/INS205GGGGGG).
T1 construct: gene dxs; truncated paDXPS; residues 206 to 245 replaced with a six glycine unit
In words: co-crystal structure ([…] Å); coupled spectrophotometric inhibition assay.

Experiment [2] deals with T2, 1-deoxy-D-xylulose-5-phosphate synthase (kpDXPS) (Klebsiella pneumoniae, UniProt A6T5F3, DEL197-240/INS196GGGGGG).
T2 construct: gene dxs; truncated kpDXPS; residues 197 to 240 replaced with a six glycine unit
The experiment is described as follows: IspC-coupled spectrophotometric assay.

Experiment [3] deals with T3, 1-deoxy-D-xylulose-5-phosphate synthase (paDXPS) (Pseudomonas aeruginosa, UniProt B7V7R4, DEL206-245/INS205GGGGGG).
T3 construct: gene dxs
T3 sequence (B7V7R4 1-627 INS205GGGGGG/DEL206-245): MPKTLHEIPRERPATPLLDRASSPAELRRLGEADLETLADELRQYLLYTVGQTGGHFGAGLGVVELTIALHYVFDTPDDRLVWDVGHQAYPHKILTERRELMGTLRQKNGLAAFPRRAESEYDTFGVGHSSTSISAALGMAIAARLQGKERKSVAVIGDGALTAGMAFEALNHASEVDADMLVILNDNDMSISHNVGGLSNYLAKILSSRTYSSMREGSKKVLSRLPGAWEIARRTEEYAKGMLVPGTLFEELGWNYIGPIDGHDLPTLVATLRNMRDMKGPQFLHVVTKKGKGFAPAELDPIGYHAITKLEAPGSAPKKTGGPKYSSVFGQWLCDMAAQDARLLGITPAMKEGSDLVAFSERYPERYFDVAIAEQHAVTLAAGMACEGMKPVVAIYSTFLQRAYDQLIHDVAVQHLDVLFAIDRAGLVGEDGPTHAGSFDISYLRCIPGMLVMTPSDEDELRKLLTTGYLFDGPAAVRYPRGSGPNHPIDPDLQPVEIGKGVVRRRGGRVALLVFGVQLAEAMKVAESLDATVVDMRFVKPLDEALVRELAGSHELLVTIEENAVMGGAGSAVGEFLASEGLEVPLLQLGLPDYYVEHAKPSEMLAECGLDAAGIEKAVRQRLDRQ
In words: IspC-coupled spectrophotometric assay; mode-of-inhibition study.

The values that follow come from publication PMC10504544, “1-deoxy-D-xylulose-5-phosphate synthase from Pseudomonas aeruginosa and Klebsiella pneumoniae reveals conformational changes upon cofactor binding” (The Journal of Biological Chemistry, 2023).

SMILES strings stand for the structures.

T2 sequence (A6T5F3 whole entry, stated change not applied, the tested form may be a part): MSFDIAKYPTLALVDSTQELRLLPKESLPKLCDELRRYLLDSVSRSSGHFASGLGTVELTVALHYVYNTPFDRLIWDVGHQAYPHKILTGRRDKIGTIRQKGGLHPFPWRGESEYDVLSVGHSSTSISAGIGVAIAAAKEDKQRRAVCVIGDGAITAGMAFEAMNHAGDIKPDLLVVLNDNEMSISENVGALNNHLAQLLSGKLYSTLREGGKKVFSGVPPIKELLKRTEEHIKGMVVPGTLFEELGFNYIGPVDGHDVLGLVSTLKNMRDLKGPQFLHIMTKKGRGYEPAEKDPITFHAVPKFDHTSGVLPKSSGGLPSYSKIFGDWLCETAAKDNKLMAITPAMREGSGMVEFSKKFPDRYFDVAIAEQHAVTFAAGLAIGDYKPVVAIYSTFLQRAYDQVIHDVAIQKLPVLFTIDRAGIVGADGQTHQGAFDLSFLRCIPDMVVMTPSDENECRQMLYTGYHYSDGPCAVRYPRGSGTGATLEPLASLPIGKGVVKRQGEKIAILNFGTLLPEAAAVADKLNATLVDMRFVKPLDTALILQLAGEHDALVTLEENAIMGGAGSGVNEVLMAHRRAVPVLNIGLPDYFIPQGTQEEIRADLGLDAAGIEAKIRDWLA

In the case of `Cc1ncc(Cc2cccc(CCO)c2)c(N)n1` [2-{3-[(4-Amino-2-Methylpyrimidin-5-Yl)methyl]phenyl}ethanol], the IC50 in experiment [1] was 197 µM; in experiment [2] it was 94 µM. Regarding `O=C(O)C(=O)CF` [fluoropyruvate], in experiment [3], the IC50 is around 27 µM.

For orientation: IC50 means the concentration that inhibits the measured activity by half. Low values mean inhibition by little substance, high ones a need for much substance.
